Assay results reported in PMC11354204, “Lactylation stabilizes TFEB to elevate autophagy and lysosomal activity” (The Journal of Cell Biology, 2024).

Experiments:
p300; p300-HA = target: T1, p300; p300-HA (Homo sapiens, UniProt Q09472); experiment: in vitro lactylation of recombinant human TFEB, anti-Kla western blot; assay type: biochemical; conditions: acyl donor; acceptor protein TFEB (10 μg); immunoprecipitated p300-HA; 50 mM Tris-HCl pH 8.0, 30 °C, 1 h
T1 construct: gene EP300; HA-tagged p300 immunoprecipitated from transfected HEK293T cells

NDRG3 = target: T2, NDRG3 (Homo sapiens, UniProt Q9UGV2); experiment: isothermal titration calorimetry; intrinsic tryptophan fluorescence quenching; assay type: binding; conditions: ITC 25 °C, 10 mM lactate into 0.5 mM NDRG3; Trp quenching with sodium lactate, 100 μM protein, 10 mM NaH2PO4 pH 7.5; non-covalent; used as positive control for TFEB
T2 construct: human NDRG3 in pGEX-5X-1, GST-tagged, expressed in E. coli BL21, glutathione-Sepharose
T2 sequence (Q9UGV2 whole entry): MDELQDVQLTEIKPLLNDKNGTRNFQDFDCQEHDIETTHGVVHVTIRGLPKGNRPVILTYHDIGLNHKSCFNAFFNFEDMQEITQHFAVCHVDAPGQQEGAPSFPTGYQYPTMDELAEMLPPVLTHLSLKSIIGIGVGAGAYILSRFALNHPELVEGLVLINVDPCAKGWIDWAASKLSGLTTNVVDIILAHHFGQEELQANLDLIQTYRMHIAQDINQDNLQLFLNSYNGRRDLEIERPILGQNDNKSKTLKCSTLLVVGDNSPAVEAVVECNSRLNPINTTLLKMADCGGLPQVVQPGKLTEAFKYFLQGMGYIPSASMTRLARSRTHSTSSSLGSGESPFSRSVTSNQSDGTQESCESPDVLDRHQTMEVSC

T1 sequence (Q09472 2-2414): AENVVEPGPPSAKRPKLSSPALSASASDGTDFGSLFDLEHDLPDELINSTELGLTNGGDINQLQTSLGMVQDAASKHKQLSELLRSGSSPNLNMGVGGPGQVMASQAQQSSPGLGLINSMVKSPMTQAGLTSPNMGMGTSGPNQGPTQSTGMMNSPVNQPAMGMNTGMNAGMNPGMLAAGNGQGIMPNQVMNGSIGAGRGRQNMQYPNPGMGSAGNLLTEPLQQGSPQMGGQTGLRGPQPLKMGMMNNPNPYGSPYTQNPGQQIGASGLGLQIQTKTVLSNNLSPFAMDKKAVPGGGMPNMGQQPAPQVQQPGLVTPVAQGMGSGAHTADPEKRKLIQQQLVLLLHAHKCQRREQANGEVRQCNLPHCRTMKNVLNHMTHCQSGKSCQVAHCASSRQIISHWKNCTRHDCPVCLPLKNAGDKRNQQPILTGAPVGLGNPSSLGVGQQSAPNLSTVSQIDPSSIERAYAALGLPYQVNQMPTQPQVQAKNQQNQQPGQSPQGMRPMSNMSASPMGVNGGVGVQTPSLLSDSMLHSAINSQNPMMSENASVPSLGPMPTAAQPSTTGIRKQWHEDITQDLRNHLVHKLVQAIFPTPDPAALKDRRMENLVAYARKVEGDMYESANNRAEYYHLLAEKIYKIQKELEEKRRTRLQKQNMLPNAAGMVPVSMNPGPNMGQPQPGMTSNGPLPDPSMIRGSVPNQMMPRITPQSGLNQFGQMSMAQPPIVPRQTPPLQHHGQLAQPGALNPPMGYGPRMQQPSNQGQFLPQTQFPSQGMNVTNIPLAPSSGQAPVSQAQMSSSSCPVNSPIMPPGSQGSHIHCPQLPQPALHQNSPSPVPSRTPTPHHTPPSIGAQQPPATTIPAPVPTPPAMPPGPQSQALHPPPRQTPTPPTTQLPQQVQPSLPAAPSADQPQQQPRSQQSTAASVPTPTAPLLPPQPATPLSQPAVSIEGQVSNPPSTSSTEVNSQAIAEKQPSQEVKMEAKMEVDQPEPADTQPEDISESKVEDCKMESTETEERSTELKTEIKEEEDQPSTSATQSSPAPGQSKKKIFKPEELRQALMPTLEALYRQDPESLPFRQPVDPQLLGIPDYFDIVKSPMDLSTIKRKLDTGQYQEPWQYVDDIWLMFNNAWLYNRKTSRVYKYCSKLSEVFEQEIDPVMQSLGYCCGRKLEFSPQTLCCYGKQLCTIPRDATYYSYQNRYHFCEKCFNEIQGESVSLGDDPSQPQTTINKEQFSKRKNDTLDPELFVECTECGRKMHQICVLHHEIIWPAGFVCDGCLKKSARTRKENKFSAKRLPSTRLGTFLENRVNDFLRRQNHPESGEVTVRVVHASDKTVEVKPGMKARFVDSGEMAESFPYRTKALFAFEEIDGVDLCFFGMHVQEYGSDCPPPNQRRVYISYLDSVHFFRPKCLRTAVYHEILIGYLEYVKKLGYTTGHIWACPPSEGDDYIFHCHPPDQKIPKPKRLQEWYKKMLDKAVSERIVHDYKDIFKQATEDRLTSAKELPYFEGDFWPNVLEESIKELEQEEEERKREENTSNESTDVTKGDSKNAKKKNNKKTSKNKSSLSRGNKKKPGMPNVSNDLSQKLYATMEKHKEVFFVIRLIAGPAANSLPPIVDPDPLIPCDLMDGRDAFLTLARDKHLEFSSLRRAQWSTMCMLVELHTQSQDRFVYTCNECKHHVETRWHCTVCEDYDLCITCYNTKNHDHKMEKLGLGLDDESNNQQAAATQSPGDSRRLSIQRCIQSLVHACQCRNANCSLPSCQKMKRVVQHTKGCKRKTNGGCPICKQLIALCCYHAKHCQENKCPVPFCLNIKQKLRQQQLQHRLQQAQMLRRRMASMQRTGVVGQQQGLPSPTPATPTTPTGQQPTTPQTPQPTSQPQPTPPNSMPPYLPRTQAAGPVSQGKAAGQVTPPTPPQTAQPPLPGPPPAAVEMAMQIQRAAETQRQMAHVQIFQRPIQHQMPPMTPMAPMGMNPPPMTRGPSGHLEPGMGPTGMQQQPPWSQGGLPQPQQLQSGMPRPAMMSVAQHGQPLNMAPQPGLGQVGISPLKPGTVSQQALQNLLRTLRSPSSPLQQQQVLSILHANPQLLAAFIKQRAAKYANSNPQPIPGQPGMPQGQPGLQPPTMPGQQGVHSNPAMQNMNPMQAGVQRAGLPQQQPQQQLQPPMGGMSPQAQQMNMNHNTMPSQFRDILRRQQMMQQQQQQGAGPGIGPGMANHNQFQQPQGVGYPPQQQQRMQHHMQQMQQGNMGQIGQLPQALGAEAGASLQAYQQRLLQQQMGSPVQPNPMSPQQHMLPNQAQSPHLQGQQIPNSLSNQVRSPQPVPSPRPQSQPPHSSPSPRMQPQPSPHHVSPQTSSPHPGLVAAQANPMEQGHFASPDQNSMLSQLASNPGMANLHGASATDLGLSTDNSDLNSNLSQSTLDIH

Compound | in vitro lactylation of recombinant human TFEB, anti-Kla western blot (p300; p300-HA) | isothermal titration calorimetry; intrinsic tryptophan fluorescence quenching (NDRG3)
C[C@H](O)C(=O)SCCNC(=O)CCNC(=O)[C@H](O)C(C)(C)COP(=O)(O)OP(=O)(O)OC[C@H]1O[C@@H](n2cnc3c(N)ncnc32)[C@H](O)[C@@H]1OP(=O)(O)O [L-lactyl-CoA] | lactylation was observed in TFEB incubated with p300-HA instead of transferase-inactivated p300-WY-HA | –
C[C@H](O)C(=O)O [lactate] | – | sodium lactate resulted in the fixed tryptophan fluorescence quenching of purified NDRG3
